# Patent publication US20230016424A1, “HYBRID AMIDE DERIVATIVES OF AMPHOTERICIN B” (The Board of Trustees of the University of Illinois, priority 2019, published 2023)
# “And” between values parts separate entries of the source, which are not always exact repeats. Equal entries are not always repeated.
# Legend:
# [1] = system: A. fumigatus; experiment: MIC against moulds; assay type: cell-based; conditions: 5 isolates
# [2] = system: A. calldoustus; experiment: MIC against moulds; assay type: cell-based; conditions: 6 isolates
# [3] = system: A. lentulus; experiment: MIC against moulds; assay type: cell-based; conditions: 6 isolates
# [4] = system: A. thermomutatus; experiment: MIC against moulds; assay type: cell-based; conditions: for MIC A. thermomutatus: 6 isolates
# [5] = system: A. tubingensis; experiment: MIC against moulds; assay type: cell-based; conditions: 6 isolates
# [6] = system: Mucor circinelloides; experiment: MIC against moulds; assay type: cell-based; conditions: 6 isolates
# [7] = system: Mucor janssenii; experiment: MIC against moulds; assay type: cell-based; conditions: 6 isolates
# [8] = system: Mucor velutinosus; experiment: MIC against moulds; assay type: cell-based; conditions: 6 isolates
# [9] = system: Histoplasma capsulatum; experiment: microbe, parasite or virus in culture; assay type: cell-based
# [10] = system: Coccidioides posadasii; experiment: microbe, parasite or virus in culture; assay type: cell-based
# [11] = system: Fusarium solani; experiment: MIC against moulds; assay type: cell-based; conditions: 6 isolates
# [12] = system: P. variotii MYA-3630 (QC); experiment: MIC against moulds; assay type: cell-based; conditions: 5 isolates
# [13] = system: Cunninghamella sp.; experiment: MIC against moulds; assay type: cell-based; conditions: 6 isolates
# [14] = system: Licht. Corymbifera; experiment: MIC against moulds; assay type: cell-based; conditions: 6 isolates
# [15] = system: Syncephalastrum sp.; experiment: MIC against moulds; assay type: cell-based; conditions: 6 isolates
# [16] = system: Talaromyces marneffei; experiment: MIC against moulds; assay type: cell-based; conditions: 6 isolates
# [17] = system: Apophysomyces sp.; experiment: MIC against moulds; assay type: cell-based; conditions: 3 isolates
# [18] = system: Different Moulds; experiment: Average MIC against different moulds; assay type: cell-based; design: MICavg moulds (159 strains): unit not given beside the values; conditions: for MIC: 157 isolates
# [19] = system: Candida auris; experiment: MIC against yeasts; assay type: cell-based; conditions: 10 isolates
# [20] = system: Candida parapsilosis; experiment: MIC against yeasts; assay type: cell-based; conditions: 8 isolates
# [21] = system: Cryptococcus gattii; experiment: MIC against yeasts; assay type: cell-based; conditions: 10 isolates
# [22] = system: Sporothrix schenckii; experiment: MIC against rare moulds resistant to AmB; assay type: cell-based; conditions: 6 isolates
# [23] = system: Purpureocillium lilacinum; experiment: MIC against rare moulds resistant to AmB; assay type: cell-based; conditions: 6 isolates
# [24] = system: Scedosporium boydii; experiment: MIC against rare moulds resistant to AmB; assay type: cell-based; conditions: 6 isolates
# [25] = Plasma Stability; assay type: in vitro ADME; conditions: for half-life at 1 µM: pH 7.4
# Method: Plasma Stability: Procedure: […] Plasma was warmed to 37° C. prior to the experiment and centrifuged for 5 mins at 4000 rpm. […] Each time point was monitored in triplicate (0, 10, 30, 60 and 120 min). 4 uL/well aliquot of the working solution was mixed to the blank plasma and incubated at 37° C. AT each time point samples were quenched with ACN stop solution containing 200 ng/ml Tolbutamide & 200 ng/ml Labetalol at 1:3 ratio and mix well on shaker for 10 min then centrifuge at 4000 rpm for 15 min. A 100 ul aliquot of supernatant was mixed with 100 μL of ultra-pure and submitted for LC-MS/MS analysis.
# [26] = target: T1, CYP2C19 (Homo sapiens, UniProt P33261); experiment: CYP Inhibition; assay type: in vitro ADME; conditions: human liver microsome; for P450 2C19 % Inhibition: 10 um
# T1 construct: 158 ul of human liver microsome (HLM) was added to all the wells; from tissue; host or cells: human liver microsomes
# [27] = UV-Vis sterol binding assay
# Method: However, an alternative method was developed for reproducible formation of homogenous AmB and C2′epiAmB sterol sponge aggregates in vitro. Using these preparations, a quantitative UV-Vis and Principle Component (PCA) based assay for determining the apparent KDs for the binding of AmB and C2′epiAmB to ergosterol and cholesterol (FIGS. 5A-5D) was developed.
# UV-Vis Binding Assay (FIG. 21A): The protocol for the sterol binding assay (UV-Vis) was developed in our lab. Compounds were dissolved in DMSO at a final concentration of 1 mM. Sterol were first dissolved in CHCl3 (>200 mM) and then diluted to 1 mM concentration with DMSO. To synthesize the complex 1 ul of compound solution was taken in a clean eppendorf tube (2 ml) and sterol solution (volume depends on the stoichiometry) was added to it and the volume was made up to 20 ul with DMSO. 0.98 ml of PBS buffer was added to the Eppendorf tube and mixed properly. The absorbance of the solution was measured after 30 mins of incubation.
# [28] = system: yeast (5 strains); experiment: MICavg yeast (5 strains); assay type: cell-based; design: unit not given beside the values
# [29] = Solubility in D5W; conditions: for Solubility in D5W: 5% dextrose in water, room temperature; for Fold of Increase w.r.t. AmB (solubility): D5W
# [30] = system: Candida albicans SN250; experiment: Mouse model of invasive candidiasis (kidney CFU); conditions: for Mouse candidiasis model: 5 mpk
# T1 sequence (P33261 whole entry): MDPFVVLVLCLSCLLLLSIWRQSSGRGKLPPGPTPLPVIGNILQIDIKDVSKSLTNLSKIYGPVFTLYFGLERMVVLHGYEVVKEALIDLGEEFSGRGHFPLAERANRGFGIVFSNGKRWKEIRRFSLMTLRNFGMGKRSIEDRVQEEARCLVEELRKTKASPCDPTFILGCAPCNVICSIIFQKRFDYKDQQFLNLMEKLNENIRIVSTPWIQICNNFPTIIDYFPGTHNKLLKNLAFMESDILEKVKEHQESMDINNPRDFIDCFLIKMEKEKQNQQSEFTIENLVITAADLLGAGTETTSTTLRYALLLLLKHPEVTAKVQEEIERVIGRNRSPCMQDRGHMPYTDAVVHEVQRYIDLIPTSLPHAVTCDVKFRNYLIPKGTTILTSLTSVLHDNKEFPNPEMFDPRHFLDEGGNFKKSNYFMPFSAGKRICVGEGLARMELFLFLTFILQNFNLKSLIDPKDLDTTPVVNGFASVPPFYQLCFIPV
smiles,measurement,setting,value
"C[C@@H]1[C@H](O)[C@@H](C)/C=C/C=C/C=C/C=C/C=C/C=C/C=C/[C@H](OC2O[C@H](C)[C@@H](O)[C@H](N)[C@@H]2O)C[C@@H]2O[C@](O)(C[C@@H](O)C[C@@H](O)[C@H](O)CC[C@@H](O)C[C@@H](O)CC(=O)O[C@H]1C)C[C@H](O)[C@H]2C(=O)O (some centres unmarked) [AmB, Amphotericin B]",MIC,[1]; Aspergillus fumigatus,0.71 µM
same,MIC,[2],1.5 µM
same,MIC,[3]; Aspergillus lentulus,3.75 µM
same,MIC,"[4]; Aspergillus thermomutatus, read-out: MIC A. thermomutatus",0.6 µM
same,MIC,[5]; Aspergillus tubingensis,0.125 µM
same,MIC,[6]; Mucor circinelloides,0.125 µM
same,MIC,[7]; Mucor janssenii,0.06 µM
same,MIC,[8]; Mucor velutinosus,0.08 µM
same,MIC,"[9]; Histoplasma capsulatum, read-out: MIC Histoplasma capsulatum",0.06 µM
same,MIC,"[10]; Coccidioides posadasii, read-out: MIC Coccidioides posadasii",0.06 µM
same,MIC,[11]; Fusarium solani,1.33 µM
same,MIC,[12]; Paecilomyces variotii,1 µM
same,MIC,[13]; Cunninghamella,2 µM
same,MIC,[14]; Lichtheimia corymbifera,0.23 µM
same,MIC,[15]; Syncephalastrum,0.06 µM
same,MIC,[16]; Talaromyces marneffei,0.09 µM
same,MIC,[17],0.75 µM
same,MICavg moulds (159 strains),[18],0.9
same,MIC,[18],0.9 µM
same,MIC,[19]; Candidozyma auris,1.2 µM
same,MIC,[20]; Lodderomyces parapsilosis,1.1 µM
same,MIC,[21]; Cryptococcus gattii,0.75 µM
same,MIC,[22]; Sporothrix schenckii,4 µM
same,MIC,[23]; Purpureocillium lilacinum,> 16 µM
same,MIC,[24]; Scedosporium boydii,> 16 µM
same,% Remaining at 120 min,[25]; Human Plasma,97.7%
same,Half Life,[25]; Human Plasma,>289; >289 min
same,% Remaining at 120 min,[25]; Rat Plasma,88.3%
same,half-life at 1 µM,[25]; Human Plasma,> 4.82 h
same,half-life at 1 µM,[25]; Mouse Plasma,> 4.82 h
same,half-life at 1 µM,[25]; Rat Plasma,> 4.82 h
same,"inhibition at 10 min, 10 µM","[26]; human liver microsomes, probe 5 in 1 substrate cocktail (substrates not named), read-out: P450 2C19 % Inhibition",7.3%
same,Binds Cholesterol,[27],Yes
same,Cholesterol Binding,[27],Yes
same,MICavg yeast (5 strains),[28],0.23
same,solubility,"[29]; 5% dextrose in water (D5W), saline or isotonic, thermodynamic from solid",23 µM
same,Mouse candidiasis model,[30],5.2 Log (CFU/mL)
CC1C=CC=CC=CC=CC=CC=CC=CC(OC2OC(C)C(O)C(N)C2O)CC2OC(O)(CC(O)CC(O)C(O)CCC(O)CC(O)CC(=O)OC(C)C(C)C1O)CC(O)C2C(=O)NCCO (centres unmarked) [Compound BA],MIC,[1],2 µM
same,MIC,[2],1.67 µM
same,MIC,[3],3 µM
same,MIC A. thermomutatus,[4],1.6 µM
same,MIC,[5],0.92 µM
same,MIC,[6],1 µM
same,MIC,[7],0.92 µM
same,MIC,[8],1.25 µM
same,MIC Histoplasma capsulatum,[9],0.06 µM
same,MIC Coccidioides posadasii,[10],0.46 µM
same,MIC,[11],8.67 µM
same,MIC,[12],2.7 µM
same,MIC,[13],7.3 µM
same,MIC,[14],1 µM
same,MIC,[15],1 µM
same,MIC,[16],0.15 µM
same,MIC,[17],16 µM
same,MICavg moulds (159 strains),[18],2.3
same,MIC,[18],2.3 µM
same,MIC,[19],2.8 µM
same,MIC,[20],2.5 µM
same,MIC,[21],2 µM
same,MIC,[22],6 µM
same,MIC,[23],>16 µM
same,MIC,[24],>16 µM
same,% Remaining at 120 min,[25]; Human Plasma,118%
same,Half Life,[25]; Human Plasma,>289 min and >289; >289 min
same,% Remaining at 120 min,[25]; Mouse Plasma,100%
same,Half Life,[25]; Mouse Plasma,>289 min and >289; >289 min
same,P450 2C19 % Inhibition,[26],26.0%
same,Binds Cholesterol,[27],No
same,Cholesterol Binding,[27],No
same,MICavg yeast (5 strains),[28],0.59
same,Solubility in D5W,[29],>2600 µM
same,Fold of Increase w.r.t. AmB (solubility),[29],>113
same,Mouse candidiasis model,[30],6.3 Log (CFU/mL)
same,Efficacy in mouse model of invasive candidiasis,[30]; in vivo,Highly Efficacious
CC1C=CC=CC=CC=CC=CC=CC=CC(OC2OC(C)C(O)C(N)C2O)CC2OC(O)(CC(O)CC(O)C(O)CCC(O)CC(O)CC(=O)OC(C)C(C)C1O)CC(O)C2C(=O)NCCF (centres unmarked) [Compound BM],MIC,[1],1.83 µM
same,MIC,[2],1.5 µM
same,MIC,[3],2.83 µM
same,MIC A. thermomutatus,[4],1.7 µM
same,MIC,[5],0.92 µM
same,MIC,[6],1 µM
same,MIC,[7],0.92 µM
same,MIC,[8],0.92 µM
same,MIC Histoplasma capsulatum,[9],0.06 µM
same,MIC Coccidioides posadasii,[10],0.42 µM
same,MIC,[11],8.8 µM
same,MIC,[12],2.67 µM
same,MIC,[13],6 µM
same,MIC,[14],1 µM
same,MIC,[15],1 µM
same,MIC,[16],0.2 µM
same,MIC,[17],8.3 µM
same,MICavg moulds (159 strains),[18],2.2
same,MIC,[18],2.3 µM
same,MIC,[19],2.4 µM
same,MIC,[20],2.4 µM
same,MIC,[21],2 µM
same,MIC,[22],6.67 µM
same,MIC,[23],>16 µM
same,MIC,[24],>16 µM
same,Half Life,[25]; Human Plasma,>289; >289 min
same,Half Life,[25]; Mouse Plasma,>289; >289 min
same,P450 2C19 % Inhibition,[26],19.7%
same,Binds Cholesterol,[27],No
same,MICavg yeast (5 strains),[28],0.58
same,Solubility in D5W,[29],150 µM
same,Fold of Increase w.r.t. AmB (solubility),[29],6.5
same,Mouse candidiasis model,[30],5.7 Log (CFU/mL)
